Source: publication PMC9238271, “The quorum sensing peptide EntF* promotes colorectal cancer metastasis in mice: a new factor in the host-microbiome interaction” (BMC Biology, 2022)
Values joined by “and” are separate entries in the source; they are usually repeats but may differ in a detail not shown here. Identical values can stand only once.

Experiments:
Caco-2 monolayer = Caco-2 monolayer permeability assay; format: in vitro ADME; settings: for Kapp / Cumulative conc / Cumulative amount / Mean cumulative amount / Mean cumulative concentration / % Dose applied / Conc in receiver compartment: Caco-2 Transwell A -> B; for Kapp / Cumulative conc / Cumulative amount / Mean cumulative amount / Mean cumulative concentration: 1 µM EntF* apical; for Kapp / Conc in receiver compartment: LC1-MS1; for Cumulative conc / Cumulative amount / % Dose applied / Conc in receiver compartment: individual replicates A -> B (1)-(6); for Mean cumulative amount / Mean cumulative concentration: mean of n = 6; for % Dose applied: amount applied 0.4 nmol; for Conc in receiver compartment: dose solution 1 µM EntF* (0.4 nmol applied), cell vol 1.200 ml
Procedure: (§1) To avoid the absorption of EntF* onto plasticware and glassware, all tubes and containers were coated with a BSA-based anti-adsorption solution before use.
(§2) HCT-8, HT-29, and HT-116 cells were grown in DMEM medium supplied with 10% fetal bovine serum (FBS) and 1% penicillin-streptomycin. Caco-2 cells were grown in DMEM medium supplied with 10% FBS, 1% non-essential amino acid NEAA), and 1% penicillin-streptomycin. Cells were cultured at 37 °C and 5% CO2. As cells reached confluency, they were detached using 0.25% Trypsin-EDTA.
(§3) Caco-2 cells were seeded on Transwell polycarbonate membrane filters (0.4 μm pore size, Corning, Germany) at a density of 2.6 × 10^5 cells/cm^2 and permeability tests performed as described by Hubatsch et al.. Cells were submerged with Hank’s balanced salt solution (HBSS), and transepithelial electrical resistance (TEER) was measured before and after the experiment. Peptide solution (1 μM) was added to the apical chamber, and 300 μL aliquots were taken after 30, 60, 90, and 120 min of incubation. Samples were analyzed using LC1-MS1. Linear curve fitting was used to calculate the apparent permeability coefficient (Papp).
(§4) EntF* was detected and quantified on a Waters Acquity® UPLC H-class system, connected to a Waters Xevo™ TQ-S triple quadrupole mass spectrometer with electrospray ionization (operated in positive ionization mode). Autosampler tray and column oven were kept at 10 ± 5 °C and 60 ± 5 °C, respectively. Chromatographic separation was achieved on a Waters Acquity® UPLC BEH Peptide C18 column (300 Å, 1.7 μm, 2.1 mm × 100 mm). The mobile phases consisted of 93/2/5 water/acetonitrile/DMSO (V/V/V) containing 0.1% formic acid (mobile phase A) and 2/93/5 water/acetonitrile/DMSO (V/V/V) containing 0.1% formic acid (mobile phase B), and the flow rate was set to 0.5 mL/min. A 10-μL aliquot from each sample was injected. The gradient program started with 80% of mobile phase A for 1 min, followed by a linear gradient to 40% of mobile phase A for 3.5 min. Gradient was then changed to 14.2% mobile phase A at 5 min, followed by a 1 min equilibration, before starting conditions were applied. EntF* retention time was between 4.25 and 4.45 min.

[1] = Caco-2 monolayer permeability assay; format: in vitro ADME; settings: Caco-2 Transwell A -> B, 1 µM EntF* apical, HBSS, LC1-MS1; average of AB1-AB6; read-out: Kapp, average
Procedure: as §1, §2, §3, §4

CC(C)C[C@@H]1NC(=O)[C@H](CO)NC(=O)[C@H](Cc2ccccc2)NC(=O)[C@H](C(C)C)NC(=O)[C@@H](NC(=O)[C@H](CCC(=O)O)NC(=O)[C@@H](NC(=O)[C@H](CC(C)C)NC(=O)[C@H](CC(N)=O)NC(=O)[C@@H](N)CO)C(C)C)CSSC[C@@H](C(=O)N[C@@H](CC(N)=O)C(=O)O)NC(=O)[C@H](CCCCN)NC(=O)[C@H](CCCCN)NC(=O)[C@H](Cc2ccccc2)NC1=O (single isomer, unassigned) [EntF*]
Kapp (Caco-2 monolayer; HBSS, replicate AB1): 2.13e-07 cm/min
Kapp (Caco-2 monolayer; HBSS, replicate AB2): 1.88e-07 cm/min
Kapp (Caco-2 monolayer; HBSS, replicate AB3): 2.21e-07 cm/min
Kapp (Caco-2 monolayer; HBSS, replicate AB4): 2.07e-07 cm/min
Kapp (Caco-2 monolayer; HBSS, replicate AB5): 2.81e-07 cm/min
Kapp (Caco-2 monolayer; HBSS, replicate AB6): 2.12e-07 cm/min
Cumulative conc (Caco-2 monolayer; HBSS, time 30 min): 43.732 pM and 39.850 pM and 48.195 pM and 54.684 pM and 29.485 pM and 29.005 pM
Cumulative amount (Caco-2 monolayer; HBSS, time 60 min): 30.299 amol and 45.664 amol and 39.602 amol and 52.014 amol and 67.922 amol and 37.955 amol
Cumulative conc (Caco-2 monolayer; HBSS, time 60 min): 25.249 pM and 38.053 pM and 33.002 pM and 43.345 pM and 56.602 pM and 31.630 pM
Cumulative amount (Caco-2 monolayer; HBSS, time 90 min): 46.426 amol and 46.765 amol and 42.758 amol and 52.183 amol and 67.818 amol and 43.254 amol
Cumulative conc (Caco-2 monolayer; HBSS, time 90 min): 38.688 pM and 38.971 pM and 35.631 pM and 43.485 pM and 56.515 pM and 36.045 pM
Cumulative amount (Caco-2 monolayer; HBSS, time 120 min): 37.088 amol and 40.742 amol and 47.116 amol and 44.500 amol and 55.592 amol and 38.733 amol
Cumulative conc (Caco-2 monolayer; HBSS, time 120 min): 30.906 pM and 33.952 pM and 39.263 pM and 37.084 pM and 46.326 pM and 32.277 pM
Mean cumulative amount (Caco-2 monolayer; time 30 min): 48.990 amol
Mean cumulative concentration (Caco-2 monolayer; time 30 min): 40.825 pM
Mean cumulative amount (Caco-2 monolayer; time 60 min): 45.576 amol
Mean cumulative concentration (Caco-2 monolayer; time 60 min): 37.980 pM
Mean cumulative amount (Caco-2 monolayer; time 90 min): 49.867 amol
Mean cumulative concentration (Caco-2 monolayer; time 90 min): 41.556 pM
Mean cumulative amount (Caco-2 monolayer; time 120 min): 43.962 amol
Mean cumulative concentration (Caco-2 monolayer; time 120 min): 36.635 pM
% Dose applied (Caco-2 monolayer; time 30 min): 13.120% and 11.955% and 14.459% and 16.405% and 8.846%
% Dose applied (Caco-2 monolayer; time 60 min): 7.575% and 11.416% and 9.901% and 13.004% and 16.980% and 9.489%
% Dose applied (Caco-2 monolayer; time 90 min): 11.606% and 11.691% and 10.689% and 13.046% and 16.954% and 10.813%
% Dose applied (Caco-2 monolayer; time 120 min): 9.272% and 10.185% and 11.779% and 11.125% and 13.898% and 9.683%
Conc in receiver compartment (Caco-2 monolayer; HBSS, time 0 min): 21.7667 pM and 38.6367 pM and 25.2731 pM and 60.96 pM and 35.1635 pM and 24.0173 pM
Conc in receiver compartment (Caco-2 monolayer; HBSS, time 30 min): 38.2904 pM and 30.1911 pM and 41.8772 pM and 39.4437 pM and 20.6944 pM and 23.0007 pM
Conc in receiver compartment (Caco-2 monolayer; HBSS, time 60 min): 13.4944 pM and 23.0389 pM and 15.795 pM and 26.5575 pM and 31.5007 pM and 17.6651 pM
Conc in receiver compartment (Caco-2 monolayer; HBSS, time 90 min): 23.56 pM and 18.1966 pM and 14.4756 pM and 20.0585 pM and 23.5388 pM and 17.664 pM
Conc in receiver compartment (Caco-2 monolayer; HBSS, time 120 min): 9.888 pM and 8.6284 pM and 14.4888 pM and 8.642 pM and 7.466 pM and 9.481 pM
apparent permeability coefficient (Papp) (Caco-2 monolayer; Caco-2 monolayer on Transwell polycarbonate filters (0.4 μm), apical to basolateral, HBSS, 1 μM peptide in apical chamber, aliquots 30, 60, 90, 120 min, LC1-MS1, linear curve fitting, mean ± SEM, n = 6): 3.67 ± 0.22 × 10^−9 cm s^−1
Papp A→B [1]: 0.00367 ×10⁻⁶ cm/s
